Results reported in patent US20170320848A1, “COMPOUNDS FOR USE IN ANTHELMINTHIC TREATMENT” (Bayer Animal Health GMBH, priority 2014, published 2017).

Tests used:
[1] = Measurement of LogP values by HPLC on reversed phase columns (EEC directive 79/831 Annex V.A8); assay type: physicochemical; conditions: acidic range, 0.1% formic acid in water and acetonitrile as eluent, read-out: logP (HCOOH)[a]
Cooperia curticei = Cooperia curticei assay (COOPCU), larval mortality; assay type: cell-based; conditions: Cooperia curticei, 120 h; application rate 20 ppm, after 5 days; read-out: activity (percentage of larval mortality)
Experimental: Cooperia Curticei—Assay (COOPCU)
(§1) Solvent: dimethyl sulfoxide
(§2) To produce a suitable preparation, 10 mg of active compound are dissolved in 0.5 ml solvent, and the concentrate is diluted with “Ringer's solution” to the desired concentration.
Approximately 40 nematode larvae (Cooperia curticei) are transferred into a test tube containing the compound solution.
After 5 days percentage of larval mortality is recorded. 100% efficacy means all larvae are killed; 0% efficacy means no larvae are killed.

Haemonchus contortus = Haemonchus contortus assay (HAEMCO), larval mortality; assay type: cell-based; conditions: Haemonchus contortus, 120 h; application rate 20 ppm, after 5 days; read-out: activity (percentage of larval mortality)
Experimental: Haemonchus Contortus—Assay (HAEMCO)
as §1, §2
Approximately 40 larvae of the red stomach worm (Haemonchus contortus) are transferred into a test tube containing compound solution.
After 5 days percentage of larval mortality are recorded. 100% efficacy means all larvae are killed, 0% efficacy means no larvae are killed.

[2] = test system: Nippostrongylus brasiliensis; assay: Nippostrongylus brasiliensis assay (NIPOBR), acetylcholine esterase readout; assay type: cell-based; conditions: read-out: activity (reduction of AChE compared to negative control)
Experimental: Nippostrongylus Brasiliensis—Assay (NIPOBR)
Adult Nippostrongylus brasiliensis were washed with saline buffer containing 100 U/ml penicillin, 0.1 mg/ml streptomycin and 2.5 μg/ml amphotericin B. Test compounds were dissolved in DMSO and worms were incubated in medium in a final concentration of 10 μg/ml (10 ppm) respectively 1 μg/ml (1 ppm). An aliquot of the medium was used to determine the acetylcholine esterase activity in comparison to a negative control. The principle of measuring acetylcholine esterase as readout for anthelmintic activity was described in Rapson et al (1986) and Rapson et al (1987).

Meloidogyne incognita = Meloidogyne incognita assay (MELGIN), gall formation on salad seedlings; assay type: in vivo; conditions: application rate 20 ppm, after 14 days
Experimental: Meloidogyne Incognita—Assay (MELGIN)
Solvent: 125.0 parts by weight of acetone
To produce a suitable preparation, 1 part by weight of active compound is mixed with the stated amount of solvent, and the concentrate is diluted with water to the desired concentration.
Vessels are filled with sand, a solution of the active ingredient, a suspension containing eggs and larvae of the southern root-knot nematode (Meloidogyne incognita) and salad seeds. The salad seeds germinate and the seedlings grow. Galls develop in the roots.
After 14 days the nematicidal activity is determined on the basis of the percentage of gall formation. 100% means no galls were found and 0% means the number of galls found on the roots of the treated plants was equal to that in untreated control plants.

| Compound | chromatographic logP [1] | mortality at 20 ppm (Cooperia curticei) | mortality at 20 ppm (Haemonchus contortus) | inhibition at 10 µg/mL [2] | nematicidal activity (percentage of gall formation) (Meloidogyne incognita) |
| --- | --- | --- | --- | --- | --- |
| N#Cc1ccc(-c2ccc(C(F)(F)CNC(=O)c3ccccc3C(F)(F)F)c(Cl)c2)cc1F [Example 25] | 3.77 | 100% | 100% | ≥ 75% | 100% |
| Cc1cc(-c2ccc(F)cc2)ccc1C(F)(F)CNC(=O)c1ccccc1C(F)(F)F [Example 38] | 4.16 | 100% | 100% | ≥ 75% | 100% |
| O=C(NCC(F)(F)c1ccc(-c2cc(F)cc(F)c2)cc1Cl)c1ccccc1C(F)(F)F [Example 35] | 4.3 | 100% | 100% | ≥ 75% | 100% |
| N#Cc1ccc(-c2ccc(C(F)(F)CNC(=O)c3ccccc3C(F)(F)F)c(Cl)c2)cc1 [Example 27] | 3.62 | 100% | 100% | ≥ 75% | 100% |
| O=C(NCC(F)(F)c1ccc(-c2ccc(F)cc2)cc1C(F)(F)F)c1cccnc1C(F)(F)F [Example 17, N-(2,2-Difluoro-2-(4′-fluoro-3-(trifluoromethyl)-[1,1′-biphenyl]-4-yl)ethyl)-2-(trifluoromethyl)-nicotinamide] | – | 100% | 100% | ≥ 75% | 90% |
| O=C(NCC(F)(F)c1ccc(-c2cc(F)c(F)c(F)c2)cc1Cl)c1ccccc1C(F)(F)F [Example 32] | 4.44 | 100% | 100% | ≥ 75% | 100% |
| O=C(NCC(F)(F)c1ccc(-c2ccc(F)c(F)c2)cc1Cl)c1ccccc1C(F)(F)F [Example 33] | 4.26 | 100% | 100% | ≥ 75% | – |
